The values below come from publication PMC7182988 (Saudi Journal of Biological Sciences, 2020).

“Also recorded” adds a separate entry of the source.

The subject of assay [1] is LPS-induced IL-6 in WI-38 fibroblast cells. Kind of assay: ELISA assay for IL-6 release in LPS-stimulated cells. Format: cell-based. The following applies: LPS-stimulated WI-38 fibroblast cells. On the technique in general: ELISA stands for enzyme-linked immunosorbent assay.
Assay [2] has as its system LPS-induced TNF-α in WI-38 fibroblast cells. The assay is described as follows: ELISA assay for TNF-α release in LPS-stimulated cells. It is filed as cell-based. The following applies: LPS-stimulated WI-38 fibroblast cells.
Another assay has as its target human recombinant COX-1 (Homo sapiens, UniProt P23219). The assay is described as follows: COX-1. It is filed as biochemical. Particulars: read-out: COX-1% (percentage of inhibition of COX-1).
Another assay addresses T1, human recombinant COX-2 (Homo sapiens, UniProt P35354).
T1 sequence (P35354 18-604): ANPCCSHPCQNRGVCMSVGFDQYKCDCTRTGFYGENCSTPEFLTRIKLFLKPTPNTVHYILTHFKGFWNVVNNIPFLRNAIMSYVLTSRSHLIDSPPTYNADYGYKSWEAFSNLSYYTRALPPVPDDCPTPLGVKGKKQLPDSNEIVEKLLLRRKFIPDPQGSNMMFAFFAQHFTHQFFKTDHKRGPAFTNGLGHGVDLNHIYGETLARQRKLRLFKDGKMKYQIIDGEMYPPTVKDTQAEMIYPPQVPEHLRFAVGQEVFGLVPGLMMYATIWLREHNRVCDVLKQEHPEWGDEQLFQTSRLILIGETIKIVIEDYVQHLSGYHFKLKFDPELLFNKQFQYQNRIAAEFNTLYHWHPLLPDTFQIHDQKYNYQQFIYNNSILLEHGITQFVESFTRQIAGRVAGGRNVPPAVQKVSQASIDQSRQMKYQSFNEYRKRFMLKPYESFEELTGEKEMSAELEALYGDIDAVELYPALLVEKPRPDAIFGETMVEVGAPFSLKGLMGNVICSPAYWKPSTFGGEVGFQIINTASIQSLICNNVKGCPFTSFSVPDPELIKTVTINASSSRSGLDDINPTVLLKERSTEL
The assay is described as follows: COX-2. Format: biochemical. Particulars: read-out: COX-2% (percentage of inhibition of COX-2).

Chain of human recombinant COX-1 (P23219 24-599): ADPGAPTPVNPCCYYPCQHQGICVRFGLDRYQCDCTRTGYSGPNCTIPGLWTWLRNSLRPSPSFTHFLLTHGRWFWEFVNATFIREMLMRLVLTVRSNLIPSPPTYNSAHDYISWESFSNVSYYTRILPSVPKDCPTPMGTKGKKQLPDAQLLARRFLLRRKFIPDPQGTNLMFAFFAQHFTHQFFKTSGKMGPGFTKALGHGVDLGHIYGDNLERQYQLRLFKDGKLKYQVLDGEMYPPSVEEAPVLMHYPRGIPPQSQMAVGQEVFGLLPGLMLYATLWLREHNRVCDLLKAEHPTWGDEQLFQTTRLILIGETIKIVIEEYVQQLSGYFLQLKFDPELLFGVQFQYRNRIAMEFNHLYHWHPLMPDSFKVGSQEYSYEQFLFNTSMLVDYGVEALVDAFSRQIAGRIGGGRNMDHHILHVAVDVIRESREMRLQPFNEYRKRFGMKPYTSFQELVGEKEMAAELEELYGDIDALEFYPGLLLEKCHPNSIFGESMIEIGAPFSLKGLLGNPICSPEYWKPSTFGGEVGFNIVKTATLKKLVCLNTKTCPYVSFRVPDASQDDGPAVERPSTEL

By inhibition is commonly meant the drop in the measured response relative to a control, in per cent. As for `O=C(c1ccc(C(F)(F)F)cc1)C1C(c2cc3ccccc3o2)C2C3CCCCC3CN2[C@@]12C(=O)Nc1ccc(Br)cc12` (stereo partly drawn) [Compound 5k, (3S)-1'-(Benzofuran-2-yl)-5-bromo-2'-(4-(trifluoromethyl)benzoyl)-1',2',5',5a',6',7',8',9',9a',9b'-decahydro-spiro[indoline-3,3'-pyrrolo[2,1-a]isoindol]-2-one], in assay [1], the “inhibition of IL-6 release (in words)” value is listed as “markedly inhibited; also recorded: most effective; also recorded: high potency”. Moreover, in assay [2], the “inhibition of TNF-α release (in words)” value was “markedly inhibited; also recorded: most effective; also recorded: high potency”. The inhibition at 40 µg/mL came out at 12.3% on human recombinant COX-1 and 4.45% at human recombinant COX-2.
